# Source: patent publication US20100183561A1, “Biological therapeutic compositions and methods thereof” (ARTERIOCYTE MEDICAL SYSTEMS, priority 2008, published 2010)
# Counter-ions that a name gives are not always drawn.
# Assays:
# [1] = Thrombin activation of antibiotic-enriched bovine PRP, visual observation; format: physicochemical; details: for Observation of PRP/Platelet Gel: gelling / Observation of PRP/Platelet Gel: precipitation or aggregation: antibiotic ~75 ug/ml final in bovine PRP, 10% CaCl2 solution, ambient conditions; for Effect on activation of PRP and gel formation / properties of PRP: smaller quantities (sufficient for local application) dissolved in CaCl2 solution, bovine PRP
# Text: Study Design: This example evaluated the appearance and characteristics of antibiotics-enriched bovine PRP. There were two variables in this study: 1) choice of antibiotics, and 2) presence/absence of thrombin. Two antibiotics were used to couple PRP in this study: 1) Vancomycin and 2) Cefazolin. Thrombin, a common reagent for activation of fibrinogen in PRP (for use as a gel would sealant), was used to activate platelet gel-antibiotics/PRP mixture formation, and compared to a mixture not activated by thrombin.
# Preparation of Bovine PRP: 60 ml of Bovine blood (anti-coagulant added) was processed with the Magellan® system to obtain 6 ml of bovine PRP. Bovince PRP was stored in a refrigerator.
# Dissolution of Antibiotics in CaCl2 solution: Initial target dose of antibiotics was based on body weight and was estimated at 1.5 mg/kg body weight per unit of PRP, or 105 mg for a 70 kg adult. 3 ml PRP was prepared from 60 ml Bovine Blood with the Magellan® System, resulting in a 2× standard concentration. 105 mg was dissolved into 3 mL of saline solution. 1 ml each of PRP Vancomycin/saline solution were combined to yield a product approximating standard PRP, containing desired amount of Vancomycin.
# Vancomycin: To achieve the revised target dose of 75 ug/ml, 5 mg antibiotic was added per 6 ml 10% w/v CaCl2 solution used to reconstitute thrombin for activation of 6 ml PRP.
# 5 mg Vancomycin hydrochloride (Acros Organics) was dissolved into 6 ml 10% w/v CaCl2 solution at ambient conditions for a concentration of 833 ug/ml. Agitation was necessary to properly dissolve Vancomycin due to its large grain sizes.
# Cefazolin: 5 mg Cefazolin hydrochloride (Alexis) was dissolved into 6 ml 10% w/v CaCl2 solution at ambient conditions for a concentration of 833 ug/ml. Slight agitation was necessary to dissolve Cefazolin.
# 1 kU of bovine thrombin was dissolved into 1 ml of Antibiotic/10% w/v CaCl2 solution or Vancomycin/10% w/v CaCl2 solution.
# Preparation of Cefazolin- or Vancomycin-Coupled PRP: 0.6 ml of the bovine thrombin/Vancomycin/10% w/v CaCl2 solution was added to 6 ml of bovine PRP to obtain 6.6 ml of Vancomycin coupled PRP gel to produce an activated gel with a final concentration of ˜75 ug/ml.
# For controls, 0.6 ml of the Vancomycin/10% w/v CaCl2 solution (without thrombin) was added to 6 ml of bovine PRP to obtain 6.6 ml of Vancomycin coupled PRP gel to produce an activated gel with a final concentration of ˜75 ug/ml.
# Evaluation of Cefazolin- or Vancomycin-Coupled PRP: After mixing, the antibiotic-enriched PRP with and without thrombin were left on bench top. Visual observation was used to evaluate the appearance and characteristics of the mixture material. This process was conducted under ambient conditions.
# [2] = as above; format: physicochemical; details: initial dose 1.05 g per unit PRP, 1 ml of 2× concentration bovine PRP + Vancomycin solution, no thrombin, Hydrochloride
Compound,Observation of PRP/Platelet Gel: gelling ([1]; Thrombin: Yes),Observation of PRP/Platelet Gel: precipitation or aggregation ([1]; Thrombin: Yes),Effect on activation of PRP and gel formation / properties of PRP [1],Appearance of PRP combined with antibiotic solution at initial (systemic-order) dose [2],Appearance of PRP combined with antibiotic solution at initial (systemic-order) dose ([2]; listed as vancomycin),Observation of PRP/Platelet Gel: precipitation or aggregation ([1]; Thrombin: No)
"Cc1nnc(SCC2=C(C(=O)[O-])N3C(=O)[C@@H](NC(=O)Cn4cnnn4)[C@H]3SC2)s1.[Na+] [Cefazolin, Cefazolin Sodium Salt]","Mixture gels immediately within minutes,",no precipitation or aggregation observed.,did not appear to alter the properties PRP,,,
"CN[C@H](CC(C)C)C(=O)N[C@H]1C(=O)N[C@@H](CC(N)=O)C(=O)N[C@H]2C(=O)N[C@H]3C(=O)N[C@H](C(=O)N[C@H](C(=O)O)c4cc(O)cc(O)c4-c4cc3ccc4O)[C@H](O)c3ccc(c(Cl)c3)Oc3cc2cc(c3O[C@@H]2O[C@H](CO)[C@@H](O)[C@H](O)[C@H]2O[C@H]2C[C@](C)(N)[C@H](O)[C@H](C)O2)Oc2ccc(cc2Cl)[C@H]1O [Vancomycin, Vancomycin Hydrochloride]",Mixture gels immediately within minutes;,,did not interfere with or premarturely initiate activation of PRP and gel formation,Immediate aggregation of PRP into a solid,rapid formation of heterogenous solids,white solid precipitates forming upon
